These results are taken from PMC11912748, “Image-Guided Monitoring of Mitochondria and Blood–Brain Barrier Dysfunction in Amyotrophic Lateral Sclerosis Mice” (Biomaterials Research, 2025).

One data set has as its system SH-SY5Y cells. Kind of data set: Subcellular localization (colocalization with LysoTracker/MitoTracker). It counts as cell-based, human. Particulars: 1 μM, 30 min, 37 °C. The method, then:
Human neuroblastoma SH-SY5Y cells [American Type Culture Collection (ATCC), Manassas, VA, USA] were cultured in a 1:1 mixture of Eagle’s minimum essential medium (EMEM; no. 30-2003, ATCC, Manassas, VA, USA) and F12K with 10% FBS and 1% penicillin-streptomycin solution. Cells were grown in a humidified atmosphere of 5% CO2 at 37 °C. The medium was replaced every 3 to 4 d, and cells were subcultured using trypsin–EDTA when 70% to 80% confluent. All media and supplements were purchased from Gibco (Gaithersburg, MD, USA). To optimize the imaging condition in this study, cells were incubated at 37 °C for 10 to 30 min in the presence of 0.1 to 1 μM of ALS04 and ALS05. After washing, the cells were imaged using BioTek Cytation 5. Fluorescence intensity was quantified using the threshold analysis method implemented in the ImageJ software. […] The cells were then washed and stained with NucBlue (2 drops/ml, Live ReadyProbes Reagent, Hoechst 33342, Invitrogen no. R37605), Lysotracker Yellow (5 μM, Invitrogen, no. L12491), and MitoTracker Deep Red (0.5 μM) (Invitrogen, no. M22426) to stain lysosome and mitochondria for 30 min as per the manufacturer’s instruction. […] Mander’s colocalization coefficients were then determined using the Costes method to choose threshold values on ImageJ [24].

A further data set relates to CD-1 mice. Kind of data set: Biodistribution and clearance by NIR imaging. It counts as in vivo. Particulars: 4 h post-injection. Here is the method: Six-week-old CD-1 mice were used to quantify the blood clearance rate and urinary excretion. Mice were injected with 25 nmol of ALS04 or ALS05 in saline containing 2.5% PEG400 (polyethylene glycol, molecular weight 400) and 5% BSA via intravenous injection under isoflurane anesthesia, and blood was collected in heparinized capillary tubes (Fisher Scientific, Pittsburgh, PA) by tail nick before injection and at 1, 3, 5, 10, 30, 60, 120, 180, and 240 min post-injection and then stored in an icebox to prevent clotting. The supernatants of collected blood were filled into capillary microtubes (Fisher Scientific) after centrifugation. Mice were euthanized with CO2 inhalation to image organs and collect urine from the bladder 4 h post-injection. Collected urine samples were also placed into capillary microtubes. The fluorescence intensities of the microtubes were measured by NIR imaging along with a set of standard ALS04 or ALS05 samples of known concentrations to analyze the pharmacokinetics. Pharmacokinetic analysis was performed using the 2-compartment model (or biexponential decay) to estimate distribution (t1/2α) and elimination (t1/2β) blood half-life, the volume of distribution, and clearance. Results were presented as a biexponential decay curve.
For all real-time intraoperative imaging, a standardized imaging protocol was employed throughout the procedure using our custom-made imaging system, as previously described. Briefly, imaging utilized a 760-nm excitation source at a fluence rate of 4 mW/cm^2 combined with white light illumination (400 to 650 nm) at 40,000 lux. Camera exposure time was adjusted as needed to accurately capture the biodistribution of the fluorophores. Mice were maintained under general anesthesia using isoflurane or a combination of ketamine and xylazine (Webster Veterinary, Fort Devens, MA), and a midline incision was performed to expose the abdominal cavity. For imaging, a general field of view (FOV) of 5 cm in diameter was used to include the pancreas head, duodenum, liver, and kidneys, while a close-up FOV of 3.3 cm in diameter focused specifically on the pancreas head and duodenum. Following imaging, the mice were euthanized using CO₂ inhalation. Major organs, including the heart, lung, liver, pancreas, spleen, kidney, duodenum, intestine, and muscle, were excised and imaged ex vivo to evaluate fluorophore biodistribution and excretion pathways. The signal-to-background ratio (SBR) was calculated as follows: SBR=IROI/IAuto (2) where IROI denotes the average intensity of an ROI and IAuto represents the intensity of the muscle.

The subject of another data set is SOD1^G93A mice. The experiment in a line: Biodistribution and targeting in ALS mouse model by NIR imaging. It counts as in vivo. Particulars: 25 nmol retro-orbital, 4 h post-injection. Here is the method:
For biodistribution and targeting studies, 12-week-old B6SJLF1/J (SOD1^G93A)1Gur male mice (25 to 30 g) were purchased from the Charles River Laboratories (Wilmington, MA). Animals were housed in an AAALAC-certified facility [Massachusetts General Hospital (MGH) #D16-00361], and all animal studies were performed in accordance with the Public Health Service Policy on Humane Care of Laboratory Animals and approved by the MGH Institutional Animal Care and Use Committee (IACUC) (#N2016000136). […] Each mouse was set on the wire lid of a typical housing cage, which was then turned on its side. It was timed how long it took after the test started for the mouse to stand with at least 2 limbs on the lid. The longest latency was noted after the animals were given 3 chances to stand for a maximum of 3 min per trial. The hemizygous SOD1^G93A mice were selected via genotyping polymerase chain reaction (PCR) assay. Mice were fed chlorophyll-free mouse chow (VWR International. Radnor, PA) at least 5 d prior to imaging to minimize autofluorescence. […]
For all real-time intraoperative imaging, a standardized imaging protocol was employed throughout the procedure using our custom-made imaging system, as previously described. […] The signal-to-background ratio (SBR) was calculated as follows: SBR=IROI/IAuto (2) where IROI denotes the average intensity of an ROI and IAuto represents the intensity of the muscle.

Data set [1] deals with SH-SY5Y cells and fibroblast NIH3T3 cells. Kind of data set: Cytotoxicity, Cell Counting Kit-8 (CCK-8). It counts as cell-based. Particulars: Homo sapiens, 0 to 20 μM, 24 h, read-out: IC50 (cell viability). The method, then: Cell viability was assessed using Cell Counting Kit-8 (CCK-8) from Dojindo Molecular Technologies Inc. (Kumamoto, Japan). Briefly, SH-SY5Y and NIH3T3 cells were seeded into 96-well plates at a density of 2,500 cells per well. The cells were then treated with 0 to 20 μM of each fluorophore in growth medium for 24 h, and 10% CCK-8 solutions were added to each well. The plates were incubated at 37 °C for 4 h, and absorbance was measured at 450 nm using a SpectraMax M5 plate reader (Molecular Devices). Cell viability (%) = (Asample − Ab)/(Ac − Ab) × 100, where Asample, Ab, and Ac denote the absorbance reading of sample, blanks, and negative control wells, respectively.

In the case of `CN1/C(=C/C2=CC3=C/C(=C/c4sc5ccccc5[n+]4C)CCC3CC2)Sc2ccccc21` (centres unmarked) [ALS04], the “Colocalization with lysosomes (colocalizing pixels)” value with SH-SY5Y cells (LysoTracker) worked out at 8.5%. Also, the “Colocalization with mitochondria (colocalizing pixels)” value in the data set on SH-SY5Y cells (MitoTracker) is 71%. Besides, in the data set on CD-1 mice (25 nmol), the “SBR in duodenum or intestine and kidneys” value is “relatively high SBR”; the “Signal in the bladder” value is “Little signal”. Also, in the data set with CD-1 mice (25 nmol, intravital NIR imaging), the Clearance route entry was “both renal and hepatic clearance”. In the data set with CD-1 mice (25 nmol, ****P ≤ 0.0001 BAT, *P = 0.0324 PG), the “Signals in brown adipose tissue (BAT) and pituitary gland (PG) compared to ALS05” value was “highly selective accumulated signals”. In addition, in the data set with CD-1 mice (resected organs), the “Ex vivo signal in the gastrointestinal tract” value was “high signal” and the “Ex vivo signal in the kidney compared to ALS05” value is listed as “noticeably higher signal”. Also, the “Uptake in BAT of SOD1^G93A mice compared to sham mice” value with SOD1^G93A mice (3-month-old asymptomatic mice, ****P ≤ 0.0001) was “significantly reduced”. The “Signals in ventral temporal (VT) lobe and third ventricle (3v) of ALS mice compared to sham mice” value in the data set on SOD1^G93A mice (**P ≤ 0.01) is reported as “significantly higher”. For the same compound, in data set [1], the IC50 was about 1300 nM.
